In US9572858B2, “Composition for treating and preventing benign prostatic hyperplasia” (GemVax & KAEL Co., Ltd., priority 2013, dated 2017):

How the values were obtained:
5α-reductase = test: Expression of 5α-reductase in ventral prostate by RT-PCR, BPH induced animal model; type: in vivo, Sprague-Dawley male rats; conditions: sulpiride 40 mg/kg alone, 60 days, rat
Text: As androgen, the most commonly used hormone in the body is testosterone. But the most powerful hormone of androgens related to development of prostate is 5α-dihydrotestosterone (DHT) which is made by combining testosterone and 5α-reductase. […] It is reported that DHT made by hyperprolactinemia make more gaining weight in lateral lobe than dorsal lobe or ventral lobe of prostate. Based on this fact, the experiment using PEP1 according to example 1 only or co-administration with other test material to BPH induced animal model was done as follows. […] Also before administrating the test materials, the body weights of every animal were measured and recorded.
Sulpiride as test material was purchased from Sigma Chemical Co. (St. Louis, Mo., USA) and used for the experiment. […] The dosage of the administration was calculated based on the concentration of 0.5 ml/kg with reflecting the body weight measured every day. […]
After administrating sulpiride with test materials for 60 days and collecting ventral prostate, the effect to the expression of 5α-reductase was measured by using RT-PCR. […] After then RNA was quantified by using spectrophotometer. […] For the control of quantification in electrophoresis, GAPDH whose expression level is not changed by other drugs was used. […]

[1] = system: BPH induced animal model (sulpiride); test: Organ weights in sulpiride BPH induced animal model; type: in vivo, Sprague-Dawley male rats; conditions: rat
[2] = Sulpiride 40 mg/kg 60 days alone (BPH induction)
[3] = Sulpiride 40 mg/kg 60 days + Finasteride 5 mg/kg

Compound	Level of 5α-reductase expression in ventral prostate (RT-PCR) (5α-reductase)	Weight of prostate [1, 2]	Weight of seminal vesicle [1, 2]	Prostate index ([1]; Sulpiride 40 mg/kg 60 days alone (BPH induction), equation Final prostate weight/body weight)	Prostate index [1, 3]	Weight of prostate [1, 3]	Weight of seminal vesicle [1, 3]
CCN1CCCC1CNC(=O)c1cc(S(N)(=O)=O)ccc1OC (stereo not shown) [Sulpiride, sulpiride]	increased	1.59 ± 0.05 g	1.23 ± 0.11 g	0.303			
CC(C)(C)NC(=O)[C@H]1CC[C@H]2[C@@H]3CC[C@H]4NC(=O)C=C[C@]4(C)[C@H]3CC[C@]12C [Finasteride, finasteride]					0.157	0.75 ± 0.06 g	0.49 ± 0.02 g
